In US6653258B1 (priority 1987, dated 2003):

Columns and labels:
[1] = test system: foliar fungal diseases of plants; assay type: in vivo; parameters: key to disease control grading, […] (VINE): 4: no disease; 3: trace −5% of disease on untreated plants; key to disease control grading, PUCCINIA RECONDITA (WHEAT) / disease control grading, VENTURIA INAEQUALIS (APPLE) / disease control grading, CERCOSPORA ARACHIDICOLA (PEANUT) / disease control grading, PH[…] (TOMATO) / disease control grading, P[…] (RICE): 4: no disease; 3: trace −5% of disease on untreated plants; 6-25% of disease on untreated plants; 1: 26-59% of disease on untreated plants; 60-100% of disease on untreated plants; settings: applied to soil (roots) and foliage one or two days before inoculation; for disease control grading, CERCOSPORA ARACHIDICOLA (PEANUT): Cercospora arachidicola on peanut; for disease control grading, P[…] (RICE): P[…] on rice; for disease control grading, PH[…] (TOMATO): Ph[…] on tomato; for disease control grading, PUCCINIA RECONDITA (WHEAT): Puccinia recondita on wheat; for disease control grading, VENTURIA INAEQUALIS (APPLE): Venturia inaequalis on apple; for disease control grading, […] (VINE): […] on vine
Erysiphe graminis = test: Foliar fungal disease test on Erysiphe graminis, plants inoculated 24 hours before treatment (Table V); assay type: in vivo; parameters: key: 4: no disease; 3: trace −5% of disease on untreated plants; 6-25% of disease on untreated plants; 1: 26-59% of disease on untreated plants; 60-100% of disease on untreated plants; settings: plants inoculated 24 hours before treatment

CO/C=C(/C(=O)OC)c1ccccc1COc1cccc(OCc2ccccc2)c1 [184 (Table I)]
disease control grading, CERCOSPORA ARACHIDICOLA (PEANUT) [1]: 4
disease control grading, P[…] (RICE) [1]: 3 (trace −5% of disease on untreated plants)
disease control grading, PH[…] (TOMATO) [1]: 4
disease control grading, PUCCINIA RECONDITA (WHEAT) [1]: 4
disease control grading, VENTURIA INAEQUALIS (APPLE) [1]: 4
disease control grading, […] (VINE) [1]: 4
disease control grading, ERYSIPHE GRAMINIS (BARLEY) (Erysiphe graminis): 4

CO/C=C(/C(=O)OC)c1ccccc1COc1cccc(C(C)(C)C)c1 [29 (Table I)]
disease control grading, CERCOSPORA ARACHIDICOLA (PEANUT) [1]: 4
disease control grading, P[…] (RICE) [1]: 4
disease control grading, PH[…] (TOMATO) [1]: 4
disease control grading, PUCCINIA RECONDITA (WHEAT) [1]: 4
disease control grading, VENTURIA INAEQUALIS (APPLE) [1]: 4
disease control grading, […] (VINE) [1]: 4
disease control grading, ERYSIPHE GRAMINIS (BARLEY) (Erysiphe graminis): 2 (6-25% of disease on untreated plants)

CO/C=C(/C(=O)OC)c1ccccc1CSc1ccccc1 [1 (Table II)]
disease control grading, CERCOSPORA ARACHIDICOLA (PEANUT) [1]: 0 (60-100% of disease on untreated plants)
disease control grading, P[…] (RICE) [1]: 3 (trace −5% of disease on untreated plants)
disease control grading, PH[…] (TOMATO) [1]: 4
disease control grading, PUCCINIA RECONDITA (WHEAT) [1]: 4
disease control grading, VENTURIA INAEQUALIS (APPLE) [1]: 4
disease control grading, […] (VINE) [1]: 4
disease control grading, ERYSIPHE GRAMINIS (BARLEY) (Erysiphe graminis): 2 (6-25% of disease on untreated plants)

CO/C=C(/C(=O)OC)c1ccccc1COc1ccccc1[N+](=O)[O-] [33 (Table I)]
disease control grading, CERCOSPORA ARACHIDICOLA (PEANUT) [1]: 4
disease control grading, P[…] (RICE) [1]: 4
disease control grading, PH[…] (TOMATO) [1]: 3 (trace −5% of disease on untreated plants)
disease control grading, PUCCINIA RECONDITA (WHEAT) [1]: 4
disease control grading, VENTURIA INAEQUALIS (APPLE) [1]: 4
disease control grading, […] (VINE) [1]: 4
disease control grading, ERYSIPHE GRAMINIS (BARLEY) (Erysiphe graminis): 2 (6-25% of disease on untreated plants)

CO/C=C(/C(=O)OC)c1ccccc1COc1cccc(C(F)(F)F)n1 [177 (Table I)]
disease control grading, P[…] (RICE) [1]: 4
disease control grading, PH[…] (TOMATO) [1]: 4
disease control grading, PUCCINIA RECONDITA (WHEAT) [1]: 4
disease control grading, VENTURIA INAEQUALIS (APPLE) [1]: 4
disease control grading, […] (VINE) [1]: 4
disease control grading, ERYSIPHE GRAMINIS (BARLEY) (Erysiphe graminis): 4

CO/C=C(/C(=O)OC)c1ccccc1COc1ccc2ccccc2n1 [149 (Table I)]
disease control grading, P[…] (RICE) [1]: 4
disease control grading, PH[…] (TOMATO) [1]: 4
disease control grading, PUCCINIA RECONDITA (WHEAT) [1]: 4
disease control grading, VENTURIA INAEQUALIS (APPLE) [1]: 4
disease control grading, […] (VINE) [1]: 4
disease control grading, ERYSIPHE GRAMINIS (BARLEY) (Erysiphe graminis): 4

CCN(CC)c1cccc(OCc2ccccc2/C(=C\OC)C(=O)OC)c1 [169 (Table I)]
disease control grading, CERCOSPORA ARACHIDICOLA (PEANUT) [1]: 4
disease control grading, P[…] (RICE) [1]: 0 (60-100% of disease on untreated plants)
disease control grading, PH[…] (TOMATO) [1]: 4
disease control grading, PUCCINIA RECONDITA (WHEAT) [1]: 3 (trace −5% of disease on untreated plants)
disease control grading, VENTURIA INAEQUALIS (APPLE) [1]: 4
disease control grading, […] (VINE) [1]: 4
disease control grading, ERYSIPHE GRAMINIS (BARLEY) (Erysiphe graminis): 1 (26-59% of disease on untreated plants)

CO/C=C(/C(=O)OC)c1ccccc1COc1cccc(Oc2ccccc2)c1 [165 (Table I)]
disease control grading, CERCOSPORA ARACHIDICOLA (PEANUT) [1]: 0 (60-100% of disease on untreated plants)
disease control grading, P[…] (RICE) [1]: 4
disease control grading, PH[…] (TOMATO) [1]: 4
disease control grading, PUCCINIA RECONDITA (WHEAT) [1]: 4
disease control grading, VENTURIA INAEQUALIS (APPLE) [1]: 0 (60-100% of disease on untreated plants)
disease control grading, […] (VINE) [1]: 4
disease control grading, ERYSIPHE GRAMINIS (BARLEY) (Erysiphe graminis): 4

CO/C=C(/C(=O)OC)c1ccccc1COc1cccc(OC)c1 [160 (Table I)]
disease control grading, CERCOSPORA ARACHIDICOLA (PEANUT) [1]: 3 (trace −5% of disease on untreated plants)
disease control grading, P[…] (RICE) [1]: 3 (trace −5% of disease on untreated plants)
disease control grading, PH[…] (TOMATO) [1]: 4
disease control grading, PUCCINIA RECONDITA (WHEAT) [1]: 4
disease control grading, VENTURIA INAEQUALIS (APPLE) [1]: 4
disease control grading, […] (VINE) [1]: 4
disease control grading, ERYSIPHE GRAMINIS (BARLEY) (Erysiphe graminis): 4

CO/C=C(/C(=O)OC)c1ccccc1COc1cc(Cl)ccc1Cl [158 (Table I)]
disease control grading, CERCOSPORA ARACHIDICOLA (PEANUT) [1]: 4
disease control grading, P[…] (RICE) [1]: 4
disease control grading, PH[…] (TOMATO) [1]: 3 (trace −5% of disease on untreated plants)
disease control grading, PUCCINIA RECONDITA (WHEAT) [1]: 4
disease control grading, VENTURIA INAEQUALIS (APPLE) [1]: 4
disease control grading, […] (VINE) [1]: 4
disease control grading, ERYSIPHE GRAMINIS (BARLEY) (Erysiphe graminis): 4

CO/C=C(/C(=O)OC)c1ccccc1COc1cccc(O)c1 [171 (Table I)]
disease control grading, CERCOSPORA ARACHIDICOLA (PEANUT) [1]: 3 (trace −5% of disease on untreated plants)
disease control grading, P[…] (RICE) [1]: 0 (60-100% of disease on untreated plants)
disease control grading, PH[…] (TOMATO) [1]: 3 (trace −5% of disease on untreated plants)
disease control grading, PUCCINIA RECONDITA (WHEAT) [1]: 3 (trace −5% of disease on untreated plants)
disease control grading, VENTURIA INAEQUALIS (APPLE) [1]: 4
disease control grading, […] (VINE) [1]: 4
disease control grading, ERYSIPHE GRAMINIS (BARLEY) (Erysiphe graminis): 1 (26-59% of disease on untreated plants)

CO/C=C(/C(=O)OC)c1ccccc1COc1ccccn1 [67 (Table I)]
disease control grading, CERCOSPORA ARACHIDICOLA (PEANUT) [1]: 4
disease control grading, P[…] (RICE) [1]: 4
disease control grading, PH[…] (TOMATO) [1]: 4
disease control grading, PUCCINIA RECONDITA (WHEAT) [1]: 4
disease control grading, VENTURIA INAEQUALIS (APPLE) [1]: 4
disease control grading, […] (VINE) [1]: 4
disease control grading, ERYSIPHE GRAMINIS (BARLEY) (Erysiphe graminis): 4

CO/C=C(/C(=O)OC)c1ccccc1COc1cccc(Cl)c1Cl [163 (Table I)]
disease control grading, CERCOSPORA ARACHIDICOLA (PEANUT) [1]: 4
disease control grading, P[…] (RICE) [1]: 2 (6-25% of disease on untreated plants)
disease control grading, PH[…] (TOMATO) [1]: 4
disease control grading, PUCCINIA RECONDITA (WHEAT) [1]: 4
disease control grading, VENTURIA INAEQUALIS (APPLE) [1]: 4
disease control grading, […] (VINE) [1]: 4
disease control grading, ERYSIPHE GRAMINIS (BARLEY) (Erysiphe graminis): 4

CCc1ccccc1OCc1ccccc1/C(=C\OC)C(=O)OC [27 (Table I)]
disease control grading, CERCOSPORA ARACHIDICOLA (PEANUT) [1]: 4
disease control grading, P[…] (RICE) [1]: 1 (26-59% of disease on untreated plants)
disease control grading, PH[…] (TOMATO) [1]: 4
disease control grading, PUCCINIA RECONDITA (WHEAT) [1]: 4
disease control grading, VENTURIA INAEQUALIS (APPLE) [1]: 4
disease control grading, […] (VINE) [1]: 0 (60-100% of disease on untreated plants)
disease control grading, ERYSIPHE GRAMINIS (BARLEY) (Erysiphe graminis): 4
